One compound from patent US8999365B2, “Prevention of bacterial contamination” (priority 2005, dated 2015) can be followed below.

Data set [1] concerns Staphylococcus epidermidis.
Description: (§1) Procedure A: The test surfaces were treated with 2 mL of the 2% aqueous solution of delmopinol HCl and left unstirred for 15 minutes at room temperature. All delmopinol solution was removed with a pipette. The wells were then thoroughly rinsed three times with 4 mL of a potassium phosphate buffer, 10 mM, pH 7.2. […] Procedure B: The test surfaces were treated with 2 mL of the 2% aqueous solution of delmopinol HCl and left overnight to dry. Microorganisms
(§2) A fresh bacterial strain of Staphylococcus epidermidis was isolated from skin and stored in milk powder at −80° C. The day before experimental use, bacteria were transferred to blood agar and incubated in an atmosphere of 95% H2 and 5% CO2 at 37° C. overnight. Colony-forming units were collected from the blood agar and suspended in 10 mM potassium phosphate buffer, pH 7.2, to an optical density at 600 nm of 0.4, corresponding to approximately 10^8 cells/mL.
The bacterial viability of the bacterial suspension, indicated by the vitality percentages, was assessed by fluorescence microscopy using the Live/Dead Bacterial Viability method Molecular Probes, Inc. Eugene, Oreg., USA) according to the instructions of the manufacturer. Thus, SYTO 9 (1.5 μL) and propidium iodide (1.5 μL) were mixed with 1 mL of 10 mM phosphate buffer, pH 7.2. Aliquots of 10 μL were added to 10 μL cell suspension and analysed at 1000× for green/LIVE and red/DEAD cells in the fluorescence microscope (Leitz Aristoplan microscope equipped with a halogen lamp and a 470-490 nm excitation filter).
Four mL of the bacterial suspension was added on top of coated and non-coated test surfaces mounted in Petri dishes. The cells were allowed to adhere for 60 min at 37° C. Non-adherent cells were removed by rinsing the surfaces three times with 4 mL of the buffer solution. […] A 10 μL-aliquot of the mixture was added to the surface and analysed after 10 min incubation in the dark. Microscopic images of adherent cells were analysed from 10 fields of each disc. […]
In data set [2] the test system is Staphylococcus epidermidis. The data set is described as follows: Adhesion assay: total attached cells on delmopinol-coated discs. As to conditions: mean of Exp. I-III.
Description: The different materials were obtained as discs with an approximate diameter of 30 mm and a thickness of 1 mm. These discs were then mounted in the bottom of Petri dishes
as §1, §2
Four mL of the bacterial suspension was added on top of coated and non-coated test surfaces mounted in Petri dishes. […] A 10 μL-aliquot of the mixture was added to the surface and analysed after 10 min incubation in the dark. Microscopic images of adherent cells were analysed from 10 fields of each disc. […]
Data set [3] has as its system Staphylococcus epidermidis. The data set is described as follows: Growth of adherent bacteria on treated surfaces in Tryptic Yeast Extract medium. Format: cell-based. As to conditions: for Growth after 1 day / Growth after 5 days: cell culture IV, Tryptic Yeast Extract medium, 37° C. How it is done: The ability of bacteria to grow on coated and non-coated surfaces was determined by adding 4 mL of Tryptic Yeast Extract medium to each well and incubating at 37° C.

Data set [4] is described as follows: Physicochemical properties of delmopinol (pKa, solubility of base).
[5] abbreviates: coated versus non-coated surfaces.

Regarding `CCCC(CCC)CCCC1COCCN1CCO` (stereo not shown) [delmopinol, 3-(4-propyl-heptyl)-4-(2-hydroxyethyl) morpholine], in data set [1], the “percentage viable cells, Mean” value is 9 percentage. In addition, in data set [1] (setting [5]), the “viability of adherent cells on delmopinol-coated surfaces (conclusion)” value is “significant reduction”. The “number of attached cells per mm^2, Mean” value came out at 418 cells per mm^2 in data set [2] (stainless steel coated with 2% delmopinol HCl) and 207 cells per mm^2 in data set [2] (titanium coated with 2% delmopinol HCl). Also, the “growth of surface-associated bacteria (conclusion)” value in data set [3] (setting [5]) was “significantly inhibited growth”. The “Growth after 1 day” value in data set [3] (stainless steel coated) and in data set [3] (titanium coated) was “no” in each case. In addition, the “Growth after 5 days” value in data set [3] (stainless steel coated) and in data set [3] (titanium coated) was “no” each time. Moreover, the pKa (as a rule, the pH at which an ionisable group is half protonated) in data set [4] is 7.1.
